These results are taken from US20100216761A1, “NOVEL AZETIDINONES USEFUL AS INHIBITORS OF ELASTASE” (priority 2007, published 2010).

Data set [1] has as its target T1, Human Leukocyte Elastase (HLE) (Homo sapiens, UniProt P08246).
T1 construct: The PMN lysates were prepared by isolating human neutrophils from whole blood; from tissue; host or cells: human neutrophils (PMN) isolated from whole blood, lysed by sonication in PBS
T1 sequence (P08246 30-267): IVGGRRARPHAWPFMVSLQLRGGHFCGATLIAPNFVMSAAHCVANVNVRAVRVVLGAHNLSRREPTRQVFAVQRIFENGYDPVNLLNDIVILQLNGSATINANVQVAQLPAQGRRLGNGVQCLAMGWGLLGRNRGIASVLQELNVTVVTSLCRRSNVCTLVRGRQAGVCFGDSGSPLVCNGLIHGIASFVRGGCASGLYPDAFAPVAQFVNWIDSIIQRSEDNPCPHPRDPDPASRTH
Kind of data set: HLE time-dependent inactivation assay, purified elastase. The class given is biochemical. The conditions noted are these: purified elastase 3 nM; inhibitor 26.5 nM; substrate 1 mM. The protocol:
(§1) As exemplified in Table 1, the Examples 1-6 of this application were determined to be potent, mechanism-based inactivators of Human Leukocyte Elastase (HLE) in two different in vitro time-dependent incubation assays. The two assays are described at the end of this Biological Data Section in Note 1. See the literature references in Note 2 for a discussion of the mechanism for this type of beta-lactam inactivation of HLE. Two sources of enzyme were used; either purified elastase or crude extracts of human polymorphonuclear leukocytes (PMN) containing elastase activity. […] For the compound of Example 1, the results were 638,000 M^−1 sec^−1 (average of n=3) and 809,000 M^−1 sec^−1 (n=4), respectively, and for Example 3, 804,000 M^−1 sec^−1 (average of n=4) and 952,000 M^−1 sec^−1 (n=5). […] Note that in this assay, head-to-head comparisons are particularly valuable.
(§2) Note 1: Enzyme Assays for the Inhibition of Human Polymorphonuclear Leukocyte Elastase Via Hydrolysis of N-Methyoxysuccinyl-alanyl-alanyl-prolylalanine-p-nitroanilide Reagent.
(§3) Prepare substrate by first dissolving in DMSO to 30 mg/ml (50 mM). Further dilute the substrate to 10 mM and add 25 μl to a final volume of 250 μl for a final concentration of 1 mM in the assay.
(§4) Prepare the enzyme in TES Buffer (0.045M TES (N-tris[hydroxymethyl]methyl-2-mino-ethanesulfonic acid), 0.45 M NaCl, pH 7.5.). Two sources of enzyme were used; either crude extracts of human polymorphonuclear leukocytes (PMN) containing elastase activity or purified elastase. The PMN lysates were prepared by isolating human neutrophils from whole blood after dextran sedimentation, ficoll density separation and red blood cell lysis. The neutrophils were lysed in PBS with sonciation and the concentration of active enzyme was determined by utilizing a standard curve of purified enzyme. For the purified elastase, the enzyme was resuspended at 10 mg/ml (˜340 μM) in 0.02M NaOAc, 50% glycerol. For both the PMN lysate and purified enzyme, a further dilution of enzyme was made to 30 nM and 25 μl was added to a final volume of 250 μl. The final concentration of enzyme in the assay was 3 nM.
(§5) The inhibitors to be tested were dissolved in DMSO at 10 mM. Directly before use, the inhibitors were further diluted into TES Buffer to 265 nM and […] was added to a final volume of 250 μl. The final concentration of inhibitor in the assay was 26.5 nM.
(§6) In a 96-well plate (flat bottom, polystyrene) 175 μl TES Buffer, 25 μl substrate, 25 μl inhibitor and 25 μl enzyme were added. After thoroughly mixing, the plate was then read in a spectrophotometer at 410 nm for 30 minutes counting every 10 seconds. Results were expressed as Kinact/Ki which is the second order rate constant in per mole per second for inactivation of the enzyme.

In data set [2] the target is T1, Human Leukocyte Elastase (HLE). Briefly: HLE time-dependent inactivation assay, PMN cell lysate source of HLE. The class given is biochemical. To be noted: 3 nM, inhibitor 26.5 nM, substrate 1 mM. The protocol: as §1, §2, §3, §4, §5, §6
Data set [3] can be described thus: Human liver microsome stability (Assays #1-#4). The data set is classed as in vitro ADME. The conditions noted are these: Assay #1, substrate 1 μM, protein 0.1 mg/mL, 37° C.; for half-life at 1 μM: human, liver microsomes. The protocol: The results for Examples 1 and 3 were t112=87 and 32 minutes with 78% and 60% remaining after 30 minutes, respectively, compared to shorter half-lives and lesser amounts left for Examples 2 and 4-6 (see Note 6 for conditions).
Under similar in vitro human liver microsome preparation stability assay conditions at 37° C. for 30 or 60 minutes in a separate head-to-head experiments (Assay #2 and #3) (see Note 6 for conditions) with Examples 1 and 3 and the comparator Compound #290 from U.S. Pat. No. 5,591,737, the amounts left after the 30 minute incubation (with […] microsome protein vs 0.1 mg/mL for Assay #3) were 67, 99 and 79% and for the 60 minute incubation were 94, 73 and 77%, respectively. Similarly, in a third repeat assay (Assay #4 with—NADPH controls) (see Note 6 for conditions), 90 and 72% were remaining for Example 1 and the comparator compound, respectively. […]
Note 6: Human Liver Microsome Assay # 1-3 conditions. • Assay experiment #1: Substrate concentration=1 μM; Protein concentration=0.1 mg/mL; incubation time=30 minutes at 37° C. • Assay experiment #2: Substrate concentration=1 μM; Protein concentration 0.1 mg/mL; incubation time=30 minutes at 37° C. • Assay experiment #3: Substrate concentration=1 μM; Protein concentration=0.1 mg/mL; incubation time=60 minutes at 37° C. • Assay experiment #4: Substrate concentration=1 μM; Protein concentration=1.0 mg/mL; incubation time=60 minutes at 37° C.

For orientation: kinact/KI means the maximal inactivation rate divided by the concentration that gives half of it. As usually defined, the half-life is how long it takes for the measured level to halve. A higher half-life goes with slow decline.

Regarding `CCC[C@@H](NC(=O)N1C(=O)C(CC)(CC)[C@@H]1Oc1ccc(C(=O)N(C)CCN(C)C)cc1)c1ccc(C(F)(F)F)cc1` [Example 4, 2-(S)-[4-(((2-(Dimethylamino)ethyl)methylamino)carbonyl)phenoxy]-3,3-diethyl-N-[1-(R)-(4-(trifluoromethyl)phenyl)butyl]-4-oxo-1-azetidinecarboxamide], the kinact/KI in data set [1] worked out at 290000 M⁻¹ s⁻¹. Also, the kinact/KI in data set [2] came out at 427000 M⁻¹ s⁻¹. Also, in data set [3], the “% Left @ 30 min” value amounted to 51% and the half-life at 1 μM turned out to be 25 min.

Consider `CCC[C@@H](NC(=O)N1C(=O)C(CC)(CC)[C@@H]1Oc1ccc(C(=O)N(CC)CCN(CC)CC)cc1)c1ccc(C(F)(F)F)cc1` [Example 5, 2-(S)-[4-(((2-(Diethylamino)ethyl)ethylamino)carbonyl)phenoxy]-3,3-diethyl-N-[1-(R)-(4-(trifluoromethyl)phenyl)butyl]-4-oxo-1-azetidinecarboxamide], for which, in data set [2], the kinact/KI amounted to 375000 M⁻¹ s⁻¹. Also, in data set [3], the “% Left @ 30 min” value is 31% and the half-life at 1 μM is 30 min.
